# In EP2794556B1, “BIS-(ARYL/HETEROARYL)-METHYLENE COMPOUNDS, PHARMACEUTICAL COMPOSITIONS CONTAINING SAME AND THEIR USE FOR TREATING CANCER” (Gleason, James L., priority 2011, dated 2013):
# How the values were obtained:
# [1] = target: HDAC3 (Homo sapiens, UniProt O15379); assay: Fluorogenic HDAC inhibition assay, purified enzyme
# Description: (§1) Fluorogenic HDAC inhibition assay. Boc-Lys(Ac)-7-amino-4-methylcoumarin (Boc-Lys(Ac)-AMC) was used as substrate for the HDAC assays. […] Trypsin was used to stop the reaction, releasing free AMC. The trypsin solution was prepared as follow: trypsin was dissolved in HDAC buffer to give a concentration of 10 mg/mL. Release of AMC was monitored by measuring the fluorescence at 460 nm (lex = 390 nm) with a microplate reader (SpectraMax Gemini) at 37 °C. The AMC signals were recorded against a blank with buffer, substrate and trypsin but without the enzyme. All experiments were carried out at least in triplicate.
# (§2) For standard HDAC assays, 50 µL of HDAC buffer was mixed with 10 µL of diluted enzyme solution in HDAC buffer at room temperature. The HDAC reaction was started by adding 40 µL of substrate solution in HDAC buffer followed by 30 min of incubation with stirring at 37 °C. The reaction was stopped by adding 100 µL of trypsin solution. After a 10 min incubation with stirring at 37 °C, the release of AMC was monitored by measuring the fluorescence. For HDAC inhibition assays, inhibitor diluted in 50 µL of HDAC buffer was mixed with 10 µL of diluted enzyme solution in HDAC buffer at room temperature. The HDAC reaction was started by adding 40 µL of substrate solution in HDAC buffer followed by 30 min of incubation with stirring at 37 °C. The reaction was stopped by adding 100 µL of trypsin solution. After a 10 min incubation with stirring at 37 °C, the release of AMC was monitored by measuring the fluorescence.
# [2] = target: T1, HDAC6 (Homo sapiens, UniProt Q9UBN7); assay: Fluorogenic HDAC inhibition assay, purified enzyme
# T1 sequence (Q9UBN7 1-1215): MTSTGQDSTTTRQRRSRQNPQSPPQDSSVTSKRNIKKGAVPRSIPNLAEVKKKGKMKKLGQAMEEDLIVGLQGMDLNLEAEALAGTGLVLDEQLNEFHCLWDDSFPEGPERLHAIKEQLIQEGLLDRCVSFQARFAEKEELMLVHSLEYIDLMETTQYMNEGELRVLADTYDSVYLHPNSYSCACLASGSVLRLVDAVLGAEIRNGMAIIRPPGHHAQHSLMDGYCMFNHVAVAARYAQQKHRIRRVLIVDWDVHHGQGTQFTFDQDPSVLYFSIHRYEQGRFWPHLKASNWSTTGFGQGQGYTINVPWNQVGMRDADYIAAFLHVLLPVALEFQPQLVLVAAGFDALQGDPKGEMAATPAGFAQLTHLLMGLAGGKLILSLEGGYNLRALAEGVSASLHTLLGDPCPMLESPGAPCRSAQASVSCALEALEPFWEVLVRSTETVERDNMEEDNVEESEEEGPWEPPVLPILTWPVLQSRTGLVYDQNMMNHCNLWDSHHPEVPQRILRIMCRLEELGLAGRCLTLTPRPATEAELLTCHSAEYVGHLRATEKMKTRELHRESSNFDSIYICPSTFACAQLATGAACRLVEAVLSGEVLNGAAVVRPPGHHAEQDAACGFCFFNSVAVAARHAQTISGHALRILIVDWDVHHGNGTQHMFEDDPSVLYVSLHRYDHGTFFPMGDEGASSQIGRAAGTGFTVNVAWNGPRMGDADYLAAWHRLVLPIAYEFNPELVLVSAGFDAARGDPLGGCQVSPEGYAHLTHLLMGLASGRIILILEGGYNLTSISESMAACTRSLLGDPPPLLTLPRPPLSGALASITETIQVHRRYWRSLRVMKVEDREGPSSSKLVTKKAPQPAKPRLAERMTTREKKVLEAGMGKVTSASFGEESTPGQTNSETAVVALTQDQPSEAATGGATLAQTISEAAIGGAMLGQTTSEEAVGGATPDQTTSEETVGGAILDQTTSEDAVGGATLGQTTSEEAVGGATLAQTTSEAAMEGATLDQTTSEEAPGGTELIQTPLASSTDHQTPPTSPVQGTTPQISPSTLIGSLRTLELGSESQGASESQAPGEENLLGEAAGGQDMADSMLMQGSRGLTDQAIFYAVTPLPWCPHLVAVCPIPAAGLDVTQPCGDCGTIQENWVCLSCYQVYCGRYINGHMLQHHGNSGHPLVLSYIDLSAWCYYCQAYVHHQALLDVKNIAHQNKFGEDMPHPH
# Description: as §1, §2
# [3] = system: SCC4 cells; assay: MTS cell proliferation assay; format: cell-based, human; conditions: vitamin D resistant SCC4 cells, Figures 7c, 8 and 9
# Description: Dose-dependent effects of compounds on cell cycle progression was monitored using a CellTiter 96 Aqueous Non-Radioactive Cell Proliferation Assay Kit (Promega). The assay composed of solutions of a novel tetrazolium compound (MTS) and an electron coupling reagent (phenazine methosulfate; PMS). MTS is reduced by metabolically active cells into a soluble formazan product that absorbs at 490nm. The quantity of formazan product absorbing at 490nm is directly proportional to the number of living cells.
# [4] = target: T2, VDR (Homo sapiens, UniProt P11473); assay: VDR agonism by induction of CYP24 gene expression (RT/PCR); format: cell-based; conditions: SCC25 cells; for VDR agonism by induction of CYP24 gene expression: screen at 10 µM, Fig. 1a
# T2 construct: endogenous in cells; host or cells: SCC25 human head and neck squamous carcinoma cells
# T2 sequence (P11473 1-427): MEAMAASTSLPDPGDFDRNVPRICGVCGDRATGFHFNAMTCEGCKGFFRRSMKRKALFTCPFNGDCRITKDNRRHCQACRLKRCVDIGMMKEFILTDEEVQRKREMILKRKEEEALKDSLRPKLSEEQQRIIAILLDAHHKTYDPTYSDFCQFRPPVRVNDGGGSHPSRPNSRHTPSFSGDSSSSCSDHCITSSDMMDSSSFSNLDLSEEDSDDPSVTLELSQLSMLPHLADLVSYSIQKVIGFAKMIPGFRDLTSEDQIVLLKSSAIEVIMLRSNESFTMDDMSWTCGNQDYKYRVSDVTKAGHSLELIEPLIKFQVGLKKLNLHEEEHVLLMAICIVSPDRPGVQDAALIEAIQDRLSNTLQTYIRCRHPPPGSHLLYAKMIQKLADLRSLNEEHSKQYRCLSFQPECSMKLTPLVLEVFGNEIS
# Description: Cell culture. Human head and neck squamous carcinoma cell lines SCC4 and SCC45 and mouse HNSCC line AT84 were purchased from American Type Culture Collection (Manassas, VA) and cultured under recommended conditions. Cells were split at 60-70% confluence, as follows: cells were washed with filtered PBS, split with a 5-10 min incubation with 1 ml Trypsin-EDTA (Invitrogen, Carlsbad, CA) in PBS, collected with medium. Following centrifugation, the supernatant was removed. Cell pellets were resuspended with DMEM-F12, and distributed on fresh media-containing dishes. For treatments, AT84 cells were split and 24h later medium was changed to DMEM + 10% charcoal-stripped FBS.
# RNA isolation and RT/PCR analysis. […]. Proc. Nat. Acad. Sci. U.S.A. 105, 8250-55. and Lamblin, M.et al Bioorganic & Medicinal Chemistry (2010) 18:4119-4137. After treatment, cells were washed with PBS, homogenized with 1ml TRIzol Reagent (Invitrogen, Carlsbad, CA), kept at room temperature for 2-5 min, collected and kept at -80 °C for at least 1h. After, thawing 0.2 ml chloroform was added. After vigorous mixing and storing for 10min, mixtures were centrifuged (10,000rpm, 15 min, 4 °C) and the upper transparent layer was transferred to a new tube. 0.5 ml isopropanol was added and the new solution was mixed. After centrifuging at 4 °C, the supernatant was discarded and 1ml of 75% ethanol was added. After centrifuging and discarding the supernatant, the pellet was air-dried for 5-10 min, and then dissolved in ddH2O. RNA concentrations were measured using a spectrophotometer, and 1-3µg of RNA were loaded for reverse transcriptase reactions (total volume: 20 µl). 80µl of ddH2O was added to the RT-product, and 1.5µl of that was used as template for the PCR reaction. Reverse transcriptase (Super Script II) was purchased from Invitrogen (Carlsbad, CA). DNA polymerase and dNTP's were ordered from Fermentas (Glen Burnie, MD).
# Test compounds (10 µM) were first screened for VDR agonism by analysis of induction of CYP24 gene expression in 1,25D-sensitive human SCC25 cells. […]. Consistent with binding to the VDR, induction of CYP24 by compound JF-B01, compound JF-B53 or compound 16 (JF-B54) was blocked (Fig. 1c). […]
# [5] = system: SCC4 cells; assay: EdU cell growth assay; conditions: 1,25D-resistant SCC4 cells, Fig. 2e, f
# Description: EdU cell growth assay. Click-iT EdU Alexa Fluor high-throughput imaging (HCS) assay for cell proliferation. HCS assays were performed on AT84 mouse squamous carcinoma cell line (ATCC) following the manufacturer's instruction (Molecular Probes, Invitrogen). […] All samples were in triplicate.
# Sequence of HDAC3 (O15379 whole entry, species assumed): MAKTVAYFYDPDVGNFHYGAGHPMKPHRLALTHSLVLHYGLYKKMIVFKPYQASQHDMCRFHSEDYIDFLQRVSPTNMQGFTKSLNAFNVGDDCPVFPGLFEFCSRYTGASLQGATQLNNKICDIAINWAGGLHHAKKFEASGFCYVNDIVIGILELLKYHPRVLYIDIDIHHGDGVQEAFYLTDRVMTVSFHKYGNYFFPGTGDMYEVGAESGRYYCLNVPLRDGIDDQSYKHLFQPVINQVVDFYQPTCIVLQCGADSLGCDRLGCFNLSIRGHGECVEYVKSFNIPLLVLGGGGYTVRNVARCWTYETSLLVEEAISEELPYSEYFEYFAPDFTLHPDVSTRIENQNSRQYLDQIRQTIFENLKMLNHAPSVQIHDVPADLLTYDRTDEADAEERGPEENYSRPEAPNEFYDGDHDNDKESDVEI
# Sequence of HDAC3 (Q9Y618 395-489 partner limits assumed, species assumed): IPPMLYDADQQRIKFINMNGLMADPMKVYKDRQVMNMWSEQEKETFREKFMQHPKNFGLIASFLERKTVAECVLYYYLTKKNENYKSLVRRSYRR
compound,measurement,setting,value
"CCC(CC)(c1ccc(OCC(O)C(C)(C)C)c(C)c1)c1cc(C)c(CCC(=O)NO)s1 (stereo not drawn) [DK-178, N-hydroxy-3-(5-(3-(4-(2-hydroxy-3,3-dimethylbutoxy)-3-methylphenyl)pentan-3-yl)-3-methylthiophen-2-yl)propanamide]",IC50,[1],47.3 µM
same,IC50,[2],24.9 µM
same,antiproliferative potency,[3],low micromolar potency
"CCC(CC)(c1ccc(OCC(=O)NO)c(C)c1)c1cc(C)c(CCC(O)C(C)(C)C)s1 (stereo not drawn) [DK-201, N-hydroxy-2-(4-(3-(5-(3-hydroxy-4,4-dimethylpentyl)-4-methylthiophen-2-yl)pentan-3-yl)-2-methylphenoxy)acetamide]",IC50,[1],30.5 µM
"CCC(CC)(c1ccc(OCC(O)C(C)(C)C)c(C)c1)c1cn(C)c2cc(CCC(=O)NO)ccc12 (stereo not drawn) [DK-234, N-hydroxy-3-(3-(3-(4-(2-hydroxy-3.3-dimethylbutoxy)-3-methylphenyl)pentan-3-yl)-1-methyl-1H-indol-6-yl)propanamide]",antiproliferative potency,[3],low micromolar potency
"CCC(CC)(c1ccc(OCC(O)CCC(=O)NO)c(C)c1)c1ccc(OCC(O)C(C)(C)C)c(C)c1 (stereo not drawn) [DK-305, N,4-dihydroxy-5-(4-(3-(4-(2-hydroxy-3,3-dimethylbutoxy)-3-methylphenyl)pentan-3-yl)-2-methylphenoxy)pentanamide]",IC50,[2],29.2 µM
"CCC(CC)(c1ccc(OCCCCCC(=O)NO)c(C)c1)c1ccc(OCC(O)C(C)(C)C)c(C)c1 (stereo not drawn) [DK-319, N-hydroxy-6-(4-(3-(4-(2-hydroxy-3,3-dimethylbutoxy)-3-methylphenyl)pentan-3-yl)-2-methylphenoxy)hexanamide]",IC50,[2],2.65 µM
"CCC(CC)(c1ccc(OCCCCC(=O)NO)c(C)c1)c1ccc(OCC(O)C(C)(C)C)c(C)c1 (stereo not drawn) [DK-320, N-hydroxy-5-(4-(3-(4-(2-hydroxy-3,3-dimethylbutoxy)-3-methylphenyl)pentan-3-yl)-2-methylphenoxy)pentanamide]",IC50,[2],5.03 µM
"CCC(CC)(c1ccc(OCCCCCCC(=O)NO)c(C)c1)c1ccc(OCC(O)C(C)(C)C)c(C)c1 (stereo not drawn) [DK-347, N-hydroxy-7-(4-(3-(4-(2-hydroxy-3,3-dimethylbutoxy)-3-methylphenyl)pentan-3-yl)-2-methylphenoxy)heptanamide]",IC50,[2],3.94 µM
"CCC(CC)(c1ccc(OCC(O)C(C)(C)C)c(C)c1)c1ccc(C(=O)NCCCCCC(=O)NO)c(C)c1 (stereo not drawn) [DK-361, 4-(3-(4-(2-hydroxy-3,3-dimethylbutoxy)-3-methylphenyl)pentan-3-yl)-N-(6-(hydroxyamino)-6-oxohexyl)-2-methylbenzamide]",IC50,[2],3.4 µM
"CCC(CC)(c1ccc(OCC(O)C(C)(C)C)c(C)c1)c1ccc(C(=O)NCCCCCCC(=O)NO)c(C)c1 (stereo not drawn) [DK-362, 4-(3-(4-(2-hydroxy-3,3-dimethylbutoxy)-3-methylphenyl)pentan-3-yl)-N-(7-(hydroxyamino)-7-oxoheptyl)-2-methylbenzamide]",IC50,[2],1.08 µM
"CCC(CC)(c1ccc(OCCCCCC(=O)NO)cc1)c1ccc(OCC(O)C(C)(C)C)c(C)c1 (stereo not drawn) [DK-367, N-hydroxy-6-(4-(3-(4-(2-hydroxy-3,3-dimethylbutoxy)-3-methylphenyl)pentan-3-yl)phenoxy)hexanamide]",IC50,[2],1.57 µM
same,antiproliferative potency,[3],low micromolar potency
"CCC(CC)(c1ccc(OCCCCC(=O)NO)cc1)c1ccc(OCC(O)C(C)(C)C)c(C)c1 (stereo not drawn) [DK-381, N-hydroxy-5-(4-(3-(4-(2-hydroxy-3,3-dimethylbutoxy)-3-methylphenyl)pentan-3-yl)phenoxy)pentanamide]",IC50,[2],3.13 µM
"CCC(CC)(c1ccc(OCCCCC(=O)NO)cc1)c1ccc(OCCC(C)(C)C)c(C)c1 [DK-405, 5-(4-(3-(4-(3,3-dimethylbutoxy)-3-methylphenyl)pentan-3-yl)phenoxy)-N-hydroxypentanamide]",IC50,[2],1.97 µM
"CCC(CC)(c1ccc(C(=O)NCCCCCC(=O)NO)cc1)c1ccc(OCC(O)C(C)(C)C)c(C)c1 (stereo not drawn) [DK-406, 4-(3-(4-(2-hydroxy-3,3-dimethylbutoxy)-3-methylphenyl)pentan-3-yl)-N-(6-(hydroxyamino)-6-oxohexyl)benzamide]",IC50,[2],0.557 µM
CCC(CC)(c1ccc(OCC(=O)NO)c(C)c1)c1ccc(OCC(O)CO)c(C)c1 (stereo not drawn) [JF-B40],VDR agonism by induction of CYP24 gene expression,[4],completely inactive
"CCC(CC)(c1ccc(OCCO)c(C)c1)c1ccc(OCC(=O)NO)c(C)c1 [JF-B52, N-Hydroxy-2-(4-(3-(4-(2-hydroxvethoxy)-3-methylphenyl)pentan-3-yl)-2-methylphenoxy)acetamide]",VDR agonism by induction of CYP24 gene expression,[4],completely inactive
"CCC(CC)(c1ccc(OCC(=O)NO)c(C)c1)c1ccc(OCC(=O)C(C)(C)C)c(C)c1 [JF-B59, 2-(4-(3-(4-(3,3-dimethyl-2-oxobutoxy)-3-methylphenyl)pentan-3-yl)-2-methylphenoxy)-N-hydroxyacetamide]","VDR agonist potency, fold lower compared to JF-B01",[4]; Fig. 1b,> 10 fold
CCC(CC)(c1ccc(OCC(=O)O)c(C)c1)c1ccc(OCC(=O)C(C)(C)C)c(C)c1 [JF-C11],"inhibition of proliferation, EdU incorporation",[5],failed to block SCC4 proliferation
same,"VDR agonist activity and potency, induction of CYP24 gene expression","[4]; Fig. 1b, 1d",some agonist activity
CCC(CC)(c1ccc(OCCCC(=O)NO)c(C)c1)c1ccc(OC[C@H](O)C(C)(C)C)c(C)c1 [JFD-15],IC50,[1],9.83 µM
same,IC50,[2],47.1 µM
same,antiproliferative potency,[3],low micromolar potency
CCC(CC)(c1ccc(CCC(=O)NO)c(C)c1)c1ccc(OC[C@H](O)C(C)(C)C)c(C)c1 [JFD-50],IC50,[1],45.1 µM
same,IC50,[2],36.1 µM
same,antiproliferative potency,[3],low micromolar potency
